{"source": "ChEMBL document CHEMBL1921758", "about": "“Indole alkaloids and quassinoids from the stems of Brucea mollis” (J Nat Prod, 2011)", "type_in_all_cases": "functional, cell-based", "key": {"HCT-8": {"tested_on": "HCT-8", "experiment": "Cytotoxicity against human HCT8 cells by MTT assay"}, "Bel-7402": {"tested_on": "Bel-7402", "experiment": "Cytotoxicity against human Bel7402 cells by MTT assay"}, "A549": {"tested_on": "A549", "experiment": "Cytotoxicity against human A549 cells by MTT assay"}, "[1]": {"experiment": "Cytotoxicity against human […] cells by MTT assay"}, "A2780": {"tested_on": "A2780", "experiment": "Cytotoxicity against human A2780 cells by MTT assay"}}}
{"smiles": "COc1cccc2c1C(=O)c1c(O)c3c(c(O)c1C2=O)C[C@@](O)(C(=O)CO)C[C@@H]3O[C@H]1C[C@H](N)[C@H](O)[C@H](C)O1", "note": "[DOXORUBICIN]", "values": [{"measurement": "IC50", "setting": "HCT-8", "value": 0.42, "unit": "µM"}, {"measurement": "IC50", "setting": "Bel-7402", "value": 0.53, "unit": "µM"}, {"measurement": "IC50", "setting": "A549", "value": 0.72, "unit": "µM"}, {"measurement": "IC50", "setting": "[1]", "value": 0.98, "unit": "µM"}, {"measurement": "IC50", "setting": "A2780", "value": 0.33, "unit": "µM"}]}
{"smiles": "CC1(C)C(=O)C(=O)c2c1[nH]c1cc(O)ccc21", "note": "[BRUCEOLLINE H]", "values": [{"measurement": "IC50", "setting": "HCT-8", "value": "> 10", "unit": "µM"}, {"measurement": "IC50", "setting": "Bel-7402", "value": "> 10", "unit": "µM"}, {"measurement": "IC50", "setting": "A549", "value": "> 10", "unit": "µM"}, {"measurement": "IC50", "setting": "[1]", "value": "> 10", "unit": "µM"}, {"measurement": "IC50", "setting": "A2780", "value": "> 10", "unit": "µM"}]}
{"smiles": "CC1=CC(=O)[C@@H](O)[C@]2(C)[C@H]3[C@@H](O)[C@H](O)[C@H](CO[C@@H]4O[C@H](CO)[C@@H](O)[C@H](O)[C@H]4O)[C@@H]4[C@@H](O)C(=O)O[C@H](C[C@@H]12)[C@@]43C", "note": "[YADANZIOLIDE U]", "values": [{"measurement": "IC50", "setting": "HCT-8", "value": "> 10", "unit": "µM"}, {"measurement": "IC50", "setting": "Bel-7402", "value": "> 10", "unit": "µM"}, {"measurement": "IC50", "setting": "A549", "value": "> 10", "unit": "µM"}, {"measurement": "IC50", "setting": "[1]", "value": "> 10", "unit": "µM"}, {"measurement": "IC50", "setting": "A2780", "value": "> 10", "unit": "µM"}]}
{"smiles": "CC(C)(O)[C@@H](O)C[C@]1(O)C(=O)N([C@@H]2O[C@H](CO)[C@@H](O)[C@H](O)[C@H]2O)c2ccccc21", "note": "[BRUCEOLLINE N]", "values": [{"measurement": "IC50", "setting": "HCT-8", "value": "> 10", "unit": "µM"}, {"measurement": "IC50", "setting": "Bel-7402", "value": "> 10", "unit": "µM"}, {"measurement": "IC50", "setting": "A549", "value": "> 10", "unit": "µM"}, {"measurement": "IC50", "setting": "[1]", "value": "> 10", "unit": "µM"}, {"measurement": "IC50", "setting": "A2780", "value": "> 10", "unit": "µM"}]}
{"smiles": "CC1(C)c2[nH]c3ccccc3c2C(=O)[C@@H]1O[C@@H]1O[C@H](CO)[C@@H](O)[C@H](O)[C@H]1O", "note": "[BRUCEOLLINE K]", "values": [{"measurement": "IC50", "setting": "HCT-8", "value": "> 10", "unit": "µM"}, {"measurement": "IC50", "setting": "Bel-7402", "value": "> 10", "unit": "µM"}, {"measurement": "IC50", "setting": "A549", "value": "> 10", "unit": "µM"}, {"measurement": "IC50", "setting": "[1]", "value": "> 10", "unit": "µM"}, {"measurement": "IC50", "setting": "A2780", "value": "> 10", "unit": "µM"}]}
{"smiles": "CC(C)(O)C(=O)Cc1cn([C@@H]2O[C@H](CO)[C@@H](O)[C@H](O)[C@H]2O)c2ccccc12", "note": "[BRUCEOLLINE M]", "values": [{"measurement": "IC50", "setting": "HCT-8", "value": "> 10", "unit": "µM"}, {"measurement": "IC50", "setting": "Bel-7402", "value": "> 10", "unit": "µM"}, {"measurement": "IC50", "setting": "A549", "value": "> 10", "unit": "µM"}, {"measurement": "IC50", "setting": "[1]", "value": "> 10", "unit": "µM"}, {"measurement": "IC50", "setting": "A2780", "value": "> 10", "unit": "µM"}]}
{"smiles": "CC1=CC(=O)O[C@H]1[C@@]1(C)C[C@H]2OC(=O)[C@H](O)[C@H]3[C@@H](CO)[C@@H](O)[C@H](O)[C@H]1[C@]32C", "note": "(relative stereo)", "values": [{"measurement": "IC50", "setting": "HCT-8", "value": "> 10", "unit": "µM"}, {"measurement": "IC50", "setting": "Bel-7402", "value": "> 10", "unit": "µM"}, {"measurement": "IC50", "setting": "A549", "value": "> 10", "unit": "µM"}, {"measurement": "IC50", "setting": "[1]", "value": "> 10", "unit": "µM"}, {"measurement": "IC50", "setting": "A2780", "value": "> 10", "unit": "µM"}]}
{"smiles": "CC1=CC(=O)[C@@H](O)[C@]2(C)[C@H]3[C@@H](O)[C@H](O)[C@H](CO)[C@@H]4[C@@H](O)C(=O)O[C@H](C[C@@H]12)[C@@]43C", "note": "(relative stereo)", "values": [{"measurement": "IC50", "setting": "HCT-8", "value": 3.36, "unit": "µM"}, {"measurement": "IC50", "setting": "Bel-7402", "value": 4.4, "unit": "µM"}, {"measurement": "IC50", "setting": "A549", "value": "> 10", "unit": "µM"}, {"measurement": "IC50", "setting": "[1]", "value": 3, "unit": "µM"}, {"measurement": "IC50", "setting": "A2780", "value": "> 10", "unit": "µM"}]}
{"smiles": "CC(C)(O)[C@@H](O)Cc1cn([C@@H]2O[C@H](CO)[C@@H](O)[C@H](O)[C@H]2O)c2ccccc12", "note": "[BRUCEOLLINE F]", "values": [{"measurement": "IC50", "setting": "HCT-8", "value": "> 10", "unit": "µM"}, {"measurement": "IC50", "setting": "Bel-7402", "value": "> 10", "unit": "µM"}, {"measurement": "IC50", "setting": "A549", "value": "> 10", "unit": "µM"}, {"measurement": "IC50", "setting": "[1]", "value": "> 10", "unit": "µM"}, {"measurement": "IC50", "setting": "A2780", "value": "> 10", "unit": "µM"}]}
{"smiles": "CC1(C)c2[nH]c3cc(O)ccc3c2C(=O)[C@@H]1O", "note": "[BRUCEOLLINE I]", "values": [{"measurement": "IC50", "setting": "HCT-8", "value": "> 10", "unit": "µM"}, {"measurement": "IC50", "setting": "Bel-7402", "value": "> 10", "unit": "µM"}, {"measurement": "IC50", "setting": "A549", "value": "> 10", "unit": "µM"}, {"measurement": "IC50", "setting": "[1]", "value": "> 10", "unit": "µM"}, {"measurement": "IC50", "setting": "A2780", "value": "> 10", "unit": "µM"}]}
{"smiles": "CC1(C)c2[nH]c3ccccc3c2C(=O)[C@@H]1O", "note": "[BRUCEOLLINE J]", "values": [{"measurement": "IC50", "setting": "HCT-8", "value": "> 10", "unit": "µM"}, {"measurement": "IC50", "setting": "Bel-7402", "value": "> 10", "unit": "µM"}, {"measurement": "IC50", "setting": "A549", "value": "> 10", "unit": "µM"}, {"measurement": "IC50", "setting": "[1]", "value": "> 10", "unit": "µM"}, {"measurement": "IC50", "setting": "A2780", "value": "> 10", "unit": "µM"}]}
{"smiles": "CC1(C)C(=O)C(=O)c2c1[nH]c1ccccc21", "note": "[BRUCEOLLINE E]", "values": [{"measurement": "IC50", "setting": "HCT-8", "value": "> 10", "unit": "µM"}, {"measurement": "IC50", "setting": "Bel-7402", "value": "> 10", "unit": "µM"}, {"measurement": "IC50", "setting": "A549", "value": "> 10", "unit": "µM"}, {"measurement": "IC50", "setting": "[1]", "value": "> 10", "unit": "µM"}, {"measurement": "IC50", "setting": "A2780", "value": "> 10", "unit": "µM"}]}
{"smiles": "CC(C)[C@@H](O)C(=O)c1c[nH]c2ccccc12", "note": "[BRUCEOLLINE L]", "values": [{"measurement": "IC50", "setting": "HCT-8", "value": "> 10", "unit": "µM"}, {"measurement": "IC50", "setting": "Bel-7402", "value": "> 10", "unit": "µM"}, {"measurement": "IC50", "setting": "A549", "value": "> 10", "unit": "µM"}, {"measurement": "IC50", "setting": "[1]", "value": "> 10", "unit": "µM"}, {"measurement": "IC50", "setting": "A2780", "value": "> 10", "unit": "µM"}]}
{"smiles": "CC1=CC(=O)[C@@H](O)[C@@]2(C)[C@H]1[C@@H](O)[C@H]1OC(=O)[C@H](O)[C@]3(O)[C@]14CO[C@]3(CO)[C@@H](O)[C@H](O)[C@H]24", "note": "[YADANZIOLIDE B]", "values": [{"measurement": "IC50", "setting": "HCT-8", "value": 3.33, "unit": "µM"}, {"measurement": "IC50", "setting": "Bel-7402", "value": 4.24, "unit": "µM"}, {"measurement": "IC50", "setting": "A549", "value": 3.8, "unit": "µM"}, {"measurement": "IC50", "setting": "[1]", "value": 4.85, "unit": "µM"}, {"measurement": "IC50", "setting": "A2780", "value": "> 10", "unit": "µM"}]}
{"smiles": "CC1=CC(=O)[C@@H](O)[C@]2(C)[C@H]3[C@@H](O)[C@H](O)[C@]4(C)OC[C@@]35[C@@H](C[C@@H]12)OC(=O)[C@H](O)[C@]54O", "note": "[BRUCEINE D]", "values": [{"measurement": "IC50", "setting": "HCT-8", "value": 5.81, "unit": "µM"}, {"measurement": "IC50", "setting": "Bel-7402", "value": 3.51, "unit": "µM"}, {"measurement": "IC50", "setting": "A549", "value": "> 10", "unit": "µM"}, {"measurement": "IC50", "setting": "[1]", "value": 3.8, "unit": "µM"}, {"measurement": "IC50", "setting": "A2780", "value": "> 10", "unit": "µM"}]}
